Reference: EP1534716B1, “HETEROBICYCLIC PYRAZOLE DERIVATIVES AS KINASE INHIBITORS” (priority 2002, dated 2004)

How the values were obtained:
Assay type in all cases: biochemical
[1] = biological target: PAK4 (Homo sapiens, UniProt O96013); assay: PAK4 inhibition
[2] = biological target: T1, Aurora-2 (Homo sapiens, UniProt O14965); assay: Inhibition assay of Aurora-2 activity (SPA); conditions: 10 µM ATP, 60 minutes at room temperature
T1 sequence (O14965 1-403): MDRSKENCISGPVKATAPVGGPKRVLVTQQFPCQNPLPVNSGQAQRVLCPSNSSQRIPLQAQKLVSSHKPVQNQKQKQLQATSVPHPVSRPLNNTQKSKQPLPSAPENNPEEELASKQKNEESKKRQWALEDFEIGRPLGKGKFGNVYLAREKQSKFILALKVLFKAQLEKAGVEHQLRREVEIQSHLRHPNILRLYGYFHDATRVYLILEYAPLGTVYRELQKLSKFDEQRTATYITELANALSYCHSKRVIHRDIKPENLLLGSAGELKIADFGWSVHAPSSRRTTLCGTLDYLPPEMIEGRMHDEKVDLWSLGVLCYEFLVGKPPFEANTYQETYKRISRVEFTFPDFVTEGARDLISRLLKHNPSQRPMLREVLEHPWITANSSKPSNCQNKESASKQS
Method: (§1) The inhibiting activity of putative cdk/cyclin inhibitors and the potency of selected compounds is determined through a method of assay based on the use of the SPA technology (Amersham Pharmacia Biotech).
(§2) The assay consists of the transfer of radioactivity labelled phosphate moiety by the kinase to a biotinylated substrate. The resulting 33P-labelled biotinylated product is allowed to bind to streptavidin-coated SPA beads (biotin capacity 130 pmol/mg), and light emitted was measured in a scintillation counter.
(§3) Experimental data were analyzed by the computer program GraphPad Prizm using the four parameter logistic equation: [formula] where x is the logarithm of the inhibitor concentration, y is the response; y starts at bottom and goes to top with a sigmoid shape.
Inhibition assay of Aurora-2 activity
After 60 minutes at room temperature incubation, reaction was stopped and biotinylated peptide captured by adding 100 µl of bead suspension.
Stratification: 100 µl of CsC12 5 M were added to each well and let stand 4 hour before radioactivity was counted in the Top-Count instrument.
IC50 determination: see above

[3] = biological target: cdk2/Cyclin A (Homo sapiens, UniProt P24941); assay: Inhibition assay of cdk2/Cyclin A activity (SPA); conditions: 10 µM ATP, 60 min at room temperature
Method: as §1, §2
Inhibition assay of cdk2/Cyclin A activity
Kinase reaction: 4 µM in house biotinylated histone H1 (Sigma # H-5505) substrate, 10 µM ATP (0.1 microCi P^33γ-ATP), 1.1 nM Cyclin A/CDK2 complex, inhibitor in a final volume of 30 µl buffer (TRIS HCl 10 mM pH 7.5, MgCl2 10 mM, DTT 7.5 mM + 0.2 mg/ml BSA) were added to each well of a 96 U bottom. After incubation for 60 min at room temperature, the reaction was stopped by addition of 100 µl PBS buffer containing 32 mM EDTA, 500 µM cold ATP, 0.1% Triton X100 and 10mg/ml streptavidin coated SPA beads. After 20 min incubation, 110 µL of suspension were withdrawn and transferred into 96-well OPTIPLATEs containing 100 µl of 5M CsCl. After 4 hours, the plates were read for 2 min in a Packard TOP-Count radioactivity reader.
as §3

PAK4, sequence (O96013 whole entry, species assumed): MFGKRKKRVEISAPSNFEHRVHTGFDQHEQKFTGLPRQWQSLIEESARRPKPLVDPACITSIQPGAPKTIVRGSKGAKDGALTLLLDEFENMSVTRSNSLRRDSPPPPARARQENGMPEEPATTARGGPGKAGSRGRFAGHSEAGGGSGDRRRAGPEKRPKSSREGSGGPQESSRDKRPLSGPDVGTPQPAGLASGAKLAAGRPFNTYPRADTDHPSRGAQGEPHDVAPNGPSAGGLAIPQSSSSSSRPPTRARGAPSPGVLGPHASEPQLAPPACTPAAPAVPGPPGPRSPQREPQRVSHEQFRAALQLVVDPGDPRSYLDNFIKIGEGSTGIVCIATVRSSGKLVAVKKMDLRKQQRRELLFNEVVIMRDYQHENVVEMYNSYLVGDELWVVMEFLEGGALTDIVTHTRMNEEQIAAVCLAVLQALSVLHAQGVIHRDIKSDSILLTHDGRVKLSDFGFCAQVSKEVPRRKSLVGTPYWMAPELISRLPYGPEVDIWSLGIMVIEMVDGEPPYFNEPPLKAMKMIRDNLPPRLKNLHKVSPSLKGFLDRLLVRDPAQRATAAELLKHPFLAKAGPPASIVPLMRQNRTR

Q: Which IC50 [1] does the source give for `CN1CCN(c2ccc(C(=O)Nc3n[nH]c4cc(C(=O)NCc5cccc(Cl)c5)sc34)cc2)CC1` [Compound 96, N-(3-chlorobenzyl)-3-{[4-(4-methylpiperazin-1-yl)benzoyl]amino}-1H-thieno[3,2-c]pyrazole-5-carboxamide] here?
A: < 500 nM

Q: What about the IC50 [2] of the same molecule?
A: < 100 nM

Q: With `CN1CCN(C(=O)c2cc3[nH]nc(NC(=O)c4ccc(F)cc4)c3o2)CC1` [Compound 167, 4-fluoro-N-{5-[(4-methylpiperazin-1-yl)carbonyl]-1H-furo[3,2-c]pyrazol-3-yl}benzamide] as the molecule, how does the IC50 [3] read?
A: < 500 nM

Q: `CCCCNC(=O)c1cc2[nH]nc(NC(=O)c3cccs3)c2s1` [Compound 79, N-butyl-3-[(thien-2-ylcarbonyl)amino]-1H-thieno[3,2-c]pyrazole-5-carboxamide] was tested. Which IC50 [2] did it give?
A: < 100 nM

Q: What about the IC50 [3] of the same molecule?
A: < 500 nM

Q: Which IC50 [1] does the source give for `O=C(Nc1n[nH]c2cc(C(=O)NCc3cccc(F)c3)sc12)c1ccc(N2CCOCC2)cc1` [Compound 132, N-(3-fluorobenzyl)-3-[(4-morpholin-4-ylbenzoyl)amino]-1H-thieno[3,2-c]pyrazole-5-carboxamide] here?
A: < 500 nM

Q: And the IC50 [2]?
A: < 100 nM

Q: How did the IC50 [2] turn out when `O=C(Nc1n[nH]c2cc(C(=O)NCc3ccc(Cl)cc3)sc12)c1ccc(N2CCOCC2)cc1` [Compound 134, N-(4-chlorobenzyl)-3-[(4-morpholin-4-ylbenzoyl)amino]-1H-thieno[3,2-c]pyrazole-5-carboxamide] was run?
A: < 100 nM

Q: With `CCNC(=O)c1cc2[nH]nc(NC(=O)c3ccc(C(C)(C)C)cc3)c2s1` [Compound 66, 3-[(4-tert-butylbenzoyl)amino]-N-ethyl-1H-thieno[3,2-c]pyrazole-5-carboxamide] as the molecule, how does the IC50 [2] read?
A: < 100 nM

Q: For `CCCCNC(=O)c1cc2[nH]nc(NC(=O)C3CC3)c2s1` [Compound 85, N-butyl-3-[(cyclopropylcarbonyl)amino]-1H-thieno[3,2-c]pyrazole-5-carboxamide], which IC50 [3] is on record?
A: < 500 nM

Q: For `CN1CCN(c2ccc(C(=O)Nc3n[nH]c4cc(C(=O)NCc5ccc(Cl)cc5)sc34)cc2)CC1` [Compound 97, N-(4-chlorobenzyl)-3-{[4-(4-methylpiperazin-1-yl)benzoyl]amino}-1H-thieno[3,2-c]pyrazole-5-carboxamide], which IC50 [2] is on record?
A: < 100 nM

Q: For `CC[C@@H](NC(=O)c1cc2[nH]nc(NC(=O)c3ccc(N4CCOCC4)cc3)c2s1)c1ccccc1` [Compound 131, 3-[(4-morpholin-4-ylbenzoyl)amino]-N-[(1R)-1-phenylpropyl]-1H-thieno[3,2-c]pyrazole-5-carboxamide], which IC50 [1] is on record?
A: < 500 nM

Q: And the IC50 [2]?
A: < 100 nM

Q: `CN1CCN(c2ccc(C(=O)Nc3n[nH]c4cc(C(=O)N(C)Cc5ccccc5)sc34)cc2)CC1` [Compound 113, N-benzyl-N-methyl-3-{[4-(4-methylpiperazin-1-yl)benzoyl]amino}-1H-thieno[3,2-c]pyrazole-5-carboxamide] was tested. Which IC50 [2] did it give?
A: < 100 nM

Q: How did the IC50 [2] turn out when `Cc1cccc(Cl)c1NC(=O)c1cc2[nH]nc(NC(=O)c3ccc(N4CCN(C)CC4)cc3)c2s1` [Compound 109, N-(2-chloro-6-methylphenyl)-3-{[4-(4-methylpiperazin-1-yl)benzoyl]amino}-1H-thieno[3,2-c]pyrazole-5-carboxamide] was run?
A: < 100 nM

Q: With `Cc1c(C(=O)NCc2ccc(F)cc2)sc2c(NC(=O)c3ccc(F)cc3)n[nH]c12` [Compound 145, 3-[(4-fluorobenzoyl)amino]-N-(4-fluorobenzyl)-6-methyl-1H-thieno[3,2-c]pyrazole-5-carboxamide] as the molecule, how does the IC50 [3] read?
A: < 500 nM

Q: How did the IC50 [2] turn out when `CN1CCN(c2ccc(C(=O)Nc3n[nH]c4cc(C(=O)NCc5ccc(C(F)(F)F)cc5)sc34)cc2)CC1` [Compound 104, 3-{[4-(4-methylpiperazin-1-yl)benzoyl]amino}-N-[4-(trifluoromethyl)benzyl]-1H-thieno[3,2-c]pyrazole-5-carboxamide] was run?
A: < 100 nM

Q: How did the IC50 [3] turn out when `CCCCNC(=O)c1cc2[nH]nc(NC(=O)C3CC3)c2s1` [Compound 86, N-butyl-3-[(cyclopropylcarbonyl)amino]-1H-thieno[3,2-c]pyrazole-5-carboxamide] was run?
A: < 500 nM

Q: For `CCCCNC(=O)c1cc2[nH]nc(NC(=O)CCCC)c2s1` [Compound 84, N-butyl-3-(pentanoylamino)-1H-thieno[3,2-c]pyrazole-5-carboxamide], which IC50 [3] is on record?
A: < 500 nM

Q: How did the IC50 [2] turn out when `CC(NC(=O)c1cc2[nH]nc(NC(=O)c3ccc(N4CCOCC4)cc3)c2s1)c1ccc(Cl)cc1` (centres unmarked) [Compound 130, N-[1-(4-chlorophenyl)ethyl]-3-[(4-morpholin-4-ylbenzoyl)amino]-1H-thieno[3,2-c]pyrazole-5-carboxamide] was run?
A: < 100 nM

Q: `Cc1c(C(=O)NCc2ccc(F)cc2)sc2c(NC(=O)c3cccs3)n[nH]c12` [Compound 146, N-(4-fluorobenzyl)-6-methyl-3-[(thien-2-ylcarbonyl)amino]-1H-thieno[3,2-c]pyrazole-5-carboxamide] was tested. Which IC50 [2] did it give?
A: < 100 nM

Q: And the IC50 [3]?
A: < 500 nM

Q: For `CN1CCN(C(=O)c2cc3[nH]nc(NC(=O)c4ccc(F)cc4)c3s2)CC1` [Compound 63, 4-fluoro-N-{5-[(4-methylpiperazin-1-yl)carbonyl]-1H-thieno[3,2-c]pyrazol-3-yl}benzamide], which IC50 [3] is on record?
A: < 500 nM

Q: With `O=C(Nc1n[nH]c2cc(C(=O)O)oc12)c1ccc(F)cc1` [Compound 163, 3-[(4-fluorobenzoyl)amino]-1H-furo[3,2-c]pyrazole-5-carboxylic acid] as the molecule, how does the IC50 [1] read?
A: < 500 nM

Q: And the IC50 [2]?
A: < 100 nM

Q: `O=C(Nc1n[nH]c2cc(C(=O)NCc3ccccc3)sc12)c1cc(F)cc(F)c1` [Compound 65, N-benzyl-3-[(3,5-difluorobenzoyl)amino]-1H-thieno[3,2-c]prazole-5-carboxamide] was tested. Which IC50 [3] did it give?
A: < 500 nM

Q: `Cc1cccc(Cl)c1CNC(=O)c1cc2[nH]nc(NC(=O)c3ccc(N4CCN(C)CC4)cc3)c2s1` [Compound 122, N-(2-chloro-6-methylbenzyl)-3-{[4-(4-methylpiperazin-1-yl)benzoyl]amino}-1H-thieno[3,2-c]pyrazole-5-carboxamide bis(trifluoroacetate)] was tested. Which IC50 [2] did it give?
A: < 100 nM

Q: Which IC50 [2] does the source give for `CN1CCN(c2ccc(C(=O)Nc3n[nH]c4cc(C(=O)NCc5ccccc5Cl)sc34)cc2)CC1` [Compound 106, N-(2-chlorobenzyl)-3-{[4-(4-methylpiperazin-1-yl)benzoyl]amino}-1H-thieno[3,2-c]pyrazole-5-carboxamide] here?
A: < 100 nM

Q: Which IC50 [2] does the source give for `O=C(Nc1n[nH]c2cc(C(=O)NC(c3ccccc3)c3ccccc3)sc12)c1ccc(N2CCOCC2)cc1` [Compound 128, N-benzhydryl-3-[(4-morpholin-4-ylbenzoyl)amino]-1H-thieno[3,2-c]pyrazole-5-carboxamide] here?
A: < 100 nM

Q: For `CN1CCN(c2ccc(C(=O)Nc3n[nH]c4cc(C(=O)NCc5cccc(F)c5)sc34)cc2)CC1` [Compound 94, N-(3-fluorobenzyl)-3-{[4-(4-methylpiperazin-1-yl)benzoyl]amino}-1H-thieno[3,2-c]pyrazole-5-carboxamide], which IC50 [2] is on record?
A: < 100 nM

Q: For `CCc1cccc(CC)c1NC(=O)c1cc2[nH]nc(NC(=O)c3ccc(N4CCN(C)CC4)cc3)c2s1` [Compound 107, N-(2,6-diethylphenyl)-3-{[4-(4-methylpiperazin-1-yl)benzoyl]amino}-1H-thieno[3,2-c]pyrazole-5-carboxamide], which IC50 [2] is on record?
A: < 100 nM

Q: How did the IC50 [2] turn out when `Cc1cccc(C)c1NC(=O)c1cc2[nH]nc(NC(=O)c3ccc(N4CCN(C)CC4)cc3)c2s1` [Compound 108, N-(2,6-dimethylphenyl)-3-{[4-(4-methylpiperazin-1-yl)benzoyl]amino}-1H-thieno[3,2-c]pyrazole-5-carboxamide] was run?
A: < 100 nM

Q: Which IC50 [3] does the source give for `C=CCNC(=O)c1cc2[nH]nc(NC(=O)NCc3ccccc3)c2s1` [Compound 87, N-allyl-3-{[(benzylamino)carbonyl]amino}-1H-thieno[3,2-c]pyrazole-5-carboxamide] here?
A: < 500 nM

Q: For `C[C@@H](NC(=O)c1cc2[nH]nc(NC(=O)c3ccc(CN4CCOCC4)o3)c2s1)c1ccccc1` [Compound 82, 3-{[5-(morpholin-4-ylmethyl)-2-furoyl]amino}-N-[(1R)-1-phenylethyl]-1H-thieno[3,2-c]pyrazole-5-carboxamide], which IC50 [2] is on record?
A: < 100 nM

Q: `CN1CCN(c2ccc(C(=O)Nc3n[nH]c4cc(C(=O)NCc5ccccc5)sc34)cc2)CC1` [Compound 91, N-benzyl-3-{[4-(4-methylpiperazin-1-yl)benzoyl]amino}-1H-thieno[3,2-c]pyrazole-5-carboxamide] was tested. Which IC50 [1] did it give?
A: < 500 nM
